Experimental data from US12582616B2, “Molecular targets for modulation of dissociative and associative states” (The Board of Trustees of the Leland Stanford Junior …, priority 2020, dated 2026).

How the values were obtained:
[1] = system: retrosplenial cortex (RSP); test: Two-photon imaging of retrosplenial cortex; format: in vivo, mouse
Description: Mice were anesthetized with isoflurane and the skull above retrosplenial cortex was removed and replaced with a 7 mm circular glass coverslip. For layer 1 experiments, Thy1GcaMP6s mice were used. For layer 2/3 experiments, Cux2-CreER; Ai148 mice were used (tamoxifen dissolved in corn oil was injected intraperitoneally at 0.1 mg/g at least 2 weeks prior to imaging). For layer 5 experiments, Rbp4-Cre mice were injected locally in retrosplenial with 800 nL AAVdj-Ef1a-DIO-GCaMP6f (titer 5E12) at stereotactic coordinates (−3AP, 0.5ML, −0.6DV). Mice were given >=1 week to recover before imaging. Awake, head-fixed imaging was performed on a standard two photon microscope (NeuroLabWare, Los Angeles, CA). A 16x 0.8 NA Nikon objective was immersed in clear ultrasound gel for imaging (Aquasonic, Parker Laboratories); frame rate of 30 Hz. Although we observed oscillations in RSP with 50 mg/kg, we were concerned that 50 mg/kg may be too low a dose to sensitively detect a potentially weaker signal in visual cortex or layer 2/3, and so we used 80 mg/kg in these experiments.
Two-photon tiff stack videos were registered to the average image using the TurboReg ImageJ plug-in using rigid body transformations. […] Contaminating neuropil signal was estimated from an annulus surrounding each soma mask and removed using the function F(t)=Fsoma(t)-0.3*Fneuropil(t), where Fsoma(t) is the somatic DF/F and Fneuropil(t) is the DF/F from an annulus 4 pixels wide surrounding each soma mask. The resulting traces were detrended and z-scored. The full frame fluorescence (used for quantifying layer 1 neuropil oscillations) was computed by summing all of the pixels in each frame on each time point, and then computing DF/F the same way, with no neuropil subtraction step.
Each trace (corresponding to either a fiber photometry signal, a cellular two-photon signal, a widefield regional centroid, a widefield pixel, an sEEG trace, or a smoothed spike rate Neuropixels trace) was z-scored, and the power spectral density (PSD) was then estimated using Welch's method (pwelch( ) in Matlab), with a window size of 10*fs (15*fs for human sEEG) where fs is the sampling rate of the signal. The average band power within a specified band (i.e. 1-3 Hz) was then computed by integrating the PSD estimate (bandpower in Matlab). For displaying the traces of individual cells, traces were each zscored by subtracting the mean value of the trace (across the whole recorded time window) and dividing by the standard deviation of the trace. Unless otherwise indicated, the PSD was computed across the time window from minutes 10 to 11 post-injection.

mice = test: Open field test; format: in vivo, mouse; conditions: 5 min session, compared with saline
Text: Open Field Test: Mice were placed in an evenly illuminated 50 cm×50 cm open field test box. Mouse position was captured using a webcam and Viewer software (Biobserve).

## CNC1(c2ccccc2Cl)CCCCC1=O (centres unmarked) [ketamine]
[1]; Cux2-CreER mice, after ketamine
  oscillation and population synchrony in layer 2/3 RSP neurons: neither oscillating neurons nor population synchrony were observed
[1]; Rbp4-Cre mice, after ketamine
  synchronous activity in layer 5 RSP neurons: exhibited synchronous activity
[1]; Supplementary Note 2
  spread of ketamine-rhythm across layers and regions: did not spread beyond layer 5 neurons in retrosplenial cortex
[1]; two-photon, cranial window, 80 mg/kg
  oscillation in superficial neuropil, RSP vs neighboring visual cortex: observed the oscillation in RSP but not neighboring visual cortex
mice
  open-field locomotion velocity: decreased velocity
